Common to all, as to assay type: biochemical
The target of one experiment is JAK2(h) (Homo sapiens (Human), UniProt O60674). As to the kind of experiment: JAK2 kinase activity test in vitro ([γ-33P]-ATP, Eurofins). On the procedure: (§1) Recombinant human JAK1, JAK2, JAK3 and Tyk2 […], main instruments and reagents are all provided by the British company Eurofins
(§2) JAK2, JAK3 and TYK2 dilution: 20 mM 3-(N-morpholine)propanesulfonic acid (MOPS), 1 mM EDTA, 0.01% Brij-35.5% glycerol, 0.1% β-mercaptoethanol, 1 mg/mL BSA; JAK1 dilution: 20 mM TRIS, 0.2 mM EDTA, 0.1% β-mercaptoethanol, 0.01% Brij-35.5% glycerol. All compounds were prepared as 100% DMSO solutions and brought to 50 times the final assay concentration. The test compound was subjected to 3-fold serial concentration dilution with a final concentration from 10 μM to 0.001 μM of a total of 9 concentrations. The content of DMSO in the detection reaction was 2%. A working stock solution of this compound was added to the assay well as the first component of the reaction, and then the remaining components were added according to the protocol detailed in the following determination.
JAK2(h) was incubated with 8 mM MOPS pH 7.0, 0.2 mM EDTA, 100 μM […] (SEQ ID NO: 2), 10 mM magnesium acetate, and [γ-^33P]-ATP (activity and concentration were determined as required). The reaction was started by adding the Mg/ATP mixture, and after incubation at room temperature for 40 min, the reaction was terminated by adding 0.5% phosphoric acid. Then 10 μL of the reaction product was spotted on a P30 filter pad which was washed three times with 0.425% phosphoric acid and once with methanol within 4 min, dried, and subjected to scintillation counting.
(§3) IC50 results were analyzed by XLFIT5 (205 formula) of IDBS Company.

In another experiment the target is TYK2(h) (Homo sapiens (Human), UniProt P29597). The experiment can be described thus: TYK2 kinase activity test in vitro ([γ-33P]-ATP, Eurofins). Here is the method:
as §1, §2
TYK2(h) was incubated with 8 mM MOPS pH 7.0, 0.2 mM EDTA, 250 μM GGMEDIYFEFMGGKKK (SEQ ID NO: 4), 10 mM magnesium acetate, and [γ-^33P]-ATP (activity and concentration were determined as required). The reaction was started by adding the Mg/ATP mixture, and after incubation at room temperature for 40 min, the reaction was terminated by adding 0.5% phosphoric acid. Then 10 μL of the reaction product was spotted on a P30 filter pad which was washed three times with 0.425% phosphoric acid and once with methanol within 4 min, dried, and subjected to scintillation counting.
as §3

The target of a further experiment is JAK3(h) (Homo sapiens (Human), UniProt P52333). The experiment can be described thus: JAK3 kinase activity test in vitro ([γ-33P]-ATP, Eurofins). On the procedure:
as §1, §2
JAK3(h) was incubated with 8 mM MOPS pH 7.0, 0.2 mM EDTA, 500 μM GGEEEEYFELVKKKK (SEQ ID NO: 3), 10 mM magnesium acetate, and [γ-^33P]-ATP (activity and concentration were determined as required). The reaction was started by adding the Mg/ATP mixture, and after incubation at room temperature for 40 min, the reaction was terminated by adding 0.5% phosphoric acid. Then 10 μL of the reaction product was spotted on a P30 filter pad which was washed three times with 0.425% phosphoric acid and once with methanol within 4 min, dried, and subjected to scintillation counting.
as §3

The next experiment addresses JAK1(h) (Homo sapiens (Human), UniProt P23458). The experiment can be described thus: JAK1 kinase activity test in vitro ([γ-33P]-ATP, Eurofins). On the procedure:
as §1, §2
JAK1(h) was incubated with 20 mM Tris/HCl pH 7.5, 0.2 mM EDTA, 500 μM MGEEPLYWSFPAKKK (SEQ ID NO: 1), 10 mM magnesium acetate and [γ-^33P]-ATP (activity and concentration were determined as required). The reaction was started by adding the Mg/ATP mixture, and after incubation at room temperature for 40 min, the reaction was terminated by adding 0.5% phosphoric acid. Then 10 μL of the reaction product was spotted on a P30 filter pad which was washed three times with 0.425% phosphoric acid and once with methanol within 4 min, dried, and subjected to scintillation counting.
as §3

The structures appear in SMILES notation.

Sequence of JAK3(h) (P52333 whole entry): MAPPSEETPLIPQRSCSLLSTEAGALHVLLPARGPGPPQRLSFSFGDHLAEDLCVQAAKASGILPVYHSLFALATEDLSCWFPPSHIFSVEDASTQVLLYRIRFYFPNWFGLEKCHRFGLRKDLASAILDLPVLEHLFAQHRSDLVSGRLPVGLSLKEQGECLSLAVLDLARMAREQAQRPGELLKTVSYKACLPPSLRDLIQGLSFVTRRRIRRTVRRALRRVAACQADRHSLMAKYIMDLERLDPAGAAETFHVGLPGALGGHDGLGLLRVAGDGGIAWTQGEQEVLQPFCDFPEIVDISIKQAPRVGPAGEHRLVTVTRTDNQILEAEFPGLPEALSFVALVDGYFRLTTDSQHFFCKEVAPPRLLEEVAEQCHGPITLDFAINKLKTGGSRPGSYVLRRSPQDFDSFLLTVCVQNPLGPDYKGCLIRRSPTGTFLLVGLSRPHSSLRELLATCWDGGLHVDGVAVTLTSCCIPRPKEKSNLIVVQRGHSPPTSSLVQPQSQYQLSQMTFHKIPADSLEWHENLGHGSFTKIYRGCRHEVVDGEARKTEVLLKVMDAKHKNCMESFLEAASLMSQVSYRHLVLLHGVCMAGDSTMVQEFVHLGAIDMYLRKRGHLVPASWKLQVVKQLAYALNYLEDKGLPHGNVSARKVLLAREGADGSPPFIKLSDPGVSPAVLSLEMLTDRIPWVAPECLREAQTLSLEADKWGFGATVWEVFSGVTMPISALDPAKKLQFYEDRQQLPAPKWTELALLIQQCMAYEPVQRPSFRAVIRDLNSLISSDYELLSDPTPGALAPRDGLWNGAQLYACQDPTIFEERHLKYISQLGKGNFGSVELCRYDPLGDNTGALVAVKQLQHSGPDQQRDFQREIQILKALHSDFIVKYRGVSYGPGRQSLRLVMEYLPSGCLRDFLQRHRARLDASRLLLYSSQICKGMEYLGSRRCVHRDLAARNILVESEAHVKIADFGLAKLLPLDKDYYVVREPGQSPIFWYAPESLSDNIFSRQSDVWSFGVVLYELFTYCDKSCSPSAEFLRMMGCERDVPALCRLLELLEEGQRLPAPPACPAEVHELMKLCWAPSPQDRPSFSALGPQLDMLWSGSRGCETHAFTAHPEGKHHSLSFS
Sequence of TYK2(h) (P29597 whole entry): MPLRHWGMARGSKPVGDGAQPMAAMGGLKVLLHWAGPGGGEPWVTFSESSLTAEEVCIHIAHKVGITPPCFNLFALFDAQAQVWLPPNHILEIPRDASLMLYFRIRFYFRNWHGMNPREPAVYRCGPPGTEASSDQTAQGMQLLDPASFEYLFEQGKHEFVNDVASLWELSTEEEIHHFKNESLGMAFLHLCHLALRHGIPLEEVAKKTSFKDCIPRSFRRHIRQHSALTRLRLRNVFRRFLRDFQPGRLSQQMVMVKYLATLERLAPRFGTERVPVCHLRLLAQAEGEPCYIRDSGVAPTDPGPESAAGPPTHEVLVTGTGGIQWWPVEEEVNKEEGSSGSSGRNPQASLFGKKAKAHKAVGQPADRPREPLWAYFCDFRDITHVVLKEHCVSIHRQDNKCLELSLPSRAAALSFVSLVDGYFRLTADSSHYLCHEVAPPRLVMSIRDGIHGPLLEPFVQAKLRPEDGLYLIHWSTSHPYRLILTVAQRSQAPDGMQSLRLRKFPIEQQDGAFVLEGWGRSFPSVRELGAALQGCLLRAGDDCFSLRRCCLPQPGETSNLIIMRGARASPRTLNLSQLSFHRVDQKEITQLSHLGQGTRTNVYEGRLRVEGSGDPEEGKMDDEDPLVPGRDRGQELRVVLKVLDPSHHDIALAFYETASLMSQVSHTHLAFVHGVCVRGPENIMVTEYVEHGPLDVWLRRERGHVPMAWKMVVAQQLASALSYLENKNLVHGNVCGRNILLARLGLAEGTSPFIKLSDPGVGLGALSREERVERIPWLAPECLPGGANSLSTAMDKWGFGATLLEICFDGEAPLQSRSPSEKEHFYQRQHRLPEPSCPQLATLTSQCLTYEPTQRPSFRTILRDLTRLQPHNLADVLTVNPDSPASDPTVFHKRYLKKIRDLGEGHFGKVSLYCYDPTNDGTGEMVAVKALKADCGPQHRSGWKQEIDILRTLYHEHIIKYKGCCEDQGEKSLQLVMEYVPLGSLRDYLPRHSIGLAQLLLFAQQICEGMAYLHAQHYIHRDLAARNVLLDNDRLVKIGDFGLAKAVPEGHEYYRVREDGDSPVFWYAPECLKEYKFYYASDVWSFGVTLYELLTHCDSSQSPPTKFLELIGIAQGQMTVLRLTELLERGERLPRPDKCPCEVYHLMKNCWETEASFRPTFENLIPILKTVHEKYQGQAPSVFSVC
Sequence of JAK1(h) (P23458 whole entry): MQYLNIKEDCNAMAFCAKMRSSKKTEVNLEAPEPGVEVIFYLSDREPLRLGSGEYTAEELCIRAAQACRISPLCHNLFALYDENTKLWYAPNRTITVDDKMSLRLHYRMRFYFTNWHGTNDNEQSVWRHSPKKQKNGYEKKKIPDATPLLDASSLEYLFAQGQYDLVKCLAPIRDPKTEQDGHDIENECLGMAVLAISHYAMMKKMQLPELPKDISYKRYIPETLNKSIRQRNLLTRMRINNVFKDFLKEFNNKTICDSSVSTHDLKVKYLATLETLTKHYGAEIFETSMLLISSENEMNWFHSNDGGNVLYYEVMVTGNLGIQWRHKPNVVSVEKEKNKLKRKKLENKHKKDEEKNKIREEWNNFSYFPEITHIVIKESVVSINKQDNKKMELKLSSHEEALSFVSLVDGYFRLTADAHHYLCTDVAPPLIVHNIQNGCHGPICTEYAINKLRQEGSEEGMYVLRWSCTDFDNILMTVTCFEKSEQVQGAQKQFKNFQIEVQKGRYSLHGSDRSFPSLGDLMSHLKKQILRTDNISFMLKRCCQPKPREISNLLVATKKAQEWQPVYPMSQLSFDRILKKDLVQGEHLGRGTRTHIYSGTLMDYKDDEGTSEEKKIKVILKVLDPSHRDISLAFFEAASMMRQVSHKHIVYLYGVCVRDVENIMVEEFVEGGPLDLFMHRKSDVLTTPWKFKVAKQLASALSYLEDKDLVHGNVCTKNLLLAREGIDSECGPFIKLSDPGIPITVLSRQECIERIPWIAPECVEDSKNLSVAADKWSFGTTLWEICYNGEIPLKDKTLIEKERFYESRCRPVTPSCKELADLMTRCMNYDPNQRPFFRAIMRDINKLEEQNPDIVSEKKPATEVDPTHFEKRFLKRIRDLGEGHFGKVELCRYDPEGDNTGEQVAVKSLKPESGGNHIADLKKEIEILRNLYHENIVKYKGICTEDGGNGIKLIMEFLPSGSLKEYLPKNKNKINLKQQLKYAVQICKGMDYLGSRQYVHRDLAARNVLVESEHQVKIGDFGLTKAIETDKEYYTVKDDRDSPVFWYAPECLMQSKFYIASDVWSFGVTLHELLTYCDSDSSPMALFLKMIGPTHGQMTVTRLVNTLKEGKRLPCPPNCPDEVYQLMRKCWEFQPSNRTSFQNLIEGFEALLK
Sequence of JAK2(h) (O60674 whole entry): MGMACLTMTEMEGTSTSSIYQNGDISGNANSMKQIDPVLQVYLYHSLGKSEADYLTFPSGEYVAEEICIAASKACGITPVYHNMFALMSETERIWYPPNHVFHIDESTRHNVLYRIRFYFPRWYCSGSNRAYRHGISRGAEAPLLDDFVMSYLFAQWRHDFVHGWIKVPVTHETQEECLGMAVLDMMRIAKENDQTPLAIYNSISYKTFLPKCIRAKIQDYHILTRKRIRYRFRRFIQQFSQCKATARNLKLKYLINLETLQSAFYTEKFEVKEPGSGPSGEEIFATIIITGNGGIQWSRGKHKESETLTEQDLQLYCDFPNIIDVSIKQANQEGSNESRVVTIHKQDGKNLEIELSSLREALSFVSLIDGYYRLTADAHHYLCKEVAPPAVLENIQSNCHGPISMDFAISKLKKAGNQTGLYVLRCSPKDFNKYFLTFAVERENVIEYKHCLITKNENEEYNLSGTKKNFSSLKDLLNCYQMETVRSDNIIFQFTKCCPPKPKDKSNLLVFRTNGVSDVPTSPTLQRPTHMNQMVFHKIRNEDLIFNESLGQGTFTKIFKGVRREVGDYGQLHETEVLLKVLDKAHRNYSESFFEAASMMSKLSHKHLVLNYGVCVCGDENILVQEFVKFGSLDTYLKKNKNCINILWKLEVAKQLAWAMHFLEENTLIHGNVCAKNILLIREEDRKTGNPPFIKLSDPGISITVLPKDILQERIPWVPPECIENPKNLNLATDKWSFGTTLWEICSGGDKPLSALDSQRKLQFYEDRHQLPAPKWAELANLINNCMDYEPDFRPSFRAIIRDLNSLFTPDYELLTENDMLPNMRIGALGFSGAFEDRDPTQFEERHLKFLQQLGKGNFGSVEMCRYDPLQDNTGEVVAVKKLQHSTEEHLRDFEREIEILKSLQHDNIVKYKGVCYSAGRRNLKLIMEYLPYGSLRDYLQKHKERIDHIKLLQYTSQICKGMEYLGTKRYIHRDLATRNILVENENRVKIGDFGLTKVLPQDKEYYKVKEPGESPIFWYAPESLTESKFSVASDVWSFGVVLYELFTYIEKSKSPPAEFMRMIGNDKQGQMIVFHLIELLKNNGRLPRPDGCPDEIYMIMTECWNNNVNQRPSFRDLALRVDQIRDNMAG

As for `Cn1ccc(-c2cn3nccc3c(-c3cnn(C(CC#N)C45CC(C#N)(C4)C5)c3)n2)n1` (stereo not drawn) [Compound 3], the IC50 (commonly the concentration that inhibits the measured activity by half) against JAK2(h) is 387 nM; against TYK2(h), 177 nM; on JAK3(h), 10000 nM; on JAK1(h), 1170 nM.
As for `Cn1ccc(-c2cn3nccc3c(-c3cnn([C@]4(CC#N)CC5(C[C@H](C#N)C5)C4)c3)n2)n1` (stereo partly drawn) [Compound 4], the IC50 against JAK2(h) was 82 nM; at TYK2(h), 20 nM; against JAK3(h), at least 10000 nM; against JAK1(h), 606 nM.
`Cn1ccc(-c2cn3nccc3c(-c3cnn([C@]4(CC#N)CC5(C[C@@H](C#N)C5)C4)c3)n2)n1` (stereo partly drawn) [Compound 5]: the IC50 at JAK2(h) turned out to be 40 nM; against TYK2(h), 9 nM; on JAK3(h), 2260 nM; against JAK1(h), 78 nM.
On to `Cn1ccc(-c2cn3nccc3c(-c3cnn(C4(CC#N)CC5(CN(CC#N)C5)C4)c3)n2)n1` [Compound 6], for which the IC50 at TYK2(h) was determined as 177 nM; at JAK1(h) it was 3130 nM.
As for `Cn1ccc(-c2cn3nccc3c(-c3cnn(C4(CC#N)CC5(CN(C#N)C5)C4)c3)n2)n1` [Compound 7], the IC50 is 228 nM against TYK2(h) and 2910 nM against JAK1(h).
With `Cn1ccc(-c2cn3nccc3c(-c3cnn(C4(CC#N)CC5C(C#N)C5C4)c3)n2)n1` (stereo not drawn) [Compound 8], the IC50 on JAK2(h) stood at 1.13 nM; at TYK2(h), 6.43 nM; against JAK3(h), 22.8 nM; against JAK1(h), 13.7 nM.
Consider `Cn1ccc(-c2cn3nccc3c(-c3cnn(C4(CC#N)CC5(CCN(C#N)CC5)C4)c3)n2)n1` [Compound 9], for which the IC50 worked out at 5.16 nM against JAK2(h), 2.81 nM against TYK2(h), 209 nM against JAK3(h) and 128 nM against JAK1(h).
As to `Cn1nc(-c2cn3nccc3c(-c3cnn([C@]4(CC#N)CC5(C[C@H](C#N)C5)C4)c3)n2)cc1N` (stereo partly drawn) [Compound 14], the IC50 against JAK2(h) came to 6 nM; against TYK2(h) it was 0.8 nM; against JAK3(h), 296 nM; against JAK1(h), 51 nM.
Regarding `Cn1cc(-c2cc(-c3cnn([C@]4(CC#N)CC5(C[C@H](C#N)C5)C4)c3)c3ccnn3c2)cn1` (stereo partly drawn) [Compound 16], the concentration for half-maximal inhibition (IC50) was determined as 6 nM against JAK2(h), 2 nM at TYK2(h), 67 nM at JAK3(h) and 42 nM against JAK1(h).
`N#CC[C@]1(n2cc(-c3nc(-c4cc(N)[nH]n4)cn4nccc34)cn2)CC2(C[C@@H](C#N)C2)C1` (stereo partly drawn) [Compound 21]: the 50% inhibitory concentration (IC50) against JAK2(h) turned out to be 3 nM; on TYK2(h), 0.7 nM; against JAK3(h), 99 nM; on JAK1(h), 5 nM.
